Reference: patent US4684647A, “Anti-bacterial pyrido-benzothiazine derivative and pharmaceutical composition therefor” (priority 1984, dated 1987)
≈ marks a conversion by molar mass, not a printed value.

Legend:
bacteria [1] = experiment: antibacterial activity in vitro, overall; assay type: cell-based; conditions: in vitro, Table 1
Procedure: (§1) The antibacterial activity (minimum inhibiting concentration, MIC) of the compounds according to the invention has been determined in agar, by adding the compound under evaluation at concentrations of from 0.1 to 100 meg/ml by means of a "multipoint inoculator" (Denley Techn. Ltd., England); the medium used was Isosensitest agar (Oxoid); the bacterial inoculate was 10^4 colony forming unity (CFU) per inoculation point. The reading of the results was done after 24 hour-incubation in thermostat at 37° C.
(§2) The MIC was defined as the lowest concentration of chemotherapeutic agent still capable of totally inhibiting the growth of bacteria, as detected from a lack of colony development in the inoculation point.
(§3) The microorganisms used for evaluating the activity of the specific compounds have been: Escherichia coli, Klebsiella P., Enterobacter, Serratia, Citrobacter, Proteus (+), Salmonella, Pseudomonas, Staphylococcus. All the compounds according to the present invention are provided with antibacterial activity against one or more microorganism(s) among those above mentioned. Some of such compounds are absorbed after having been administered orally to the animals, and are particularly useful as disinfectants of the urinary tract in that they are excreted in a high percentage (50-70% over 24 hours after the administration of 50 mg/kg per os) as such, and in metabolic active form, through the urine.

[2] = tissue levels by HPLC after oral administration to rats; assay type: in vivo; conditions: rat; for concentration at 0.5 h / concentration at 1 h / concentration at 2 h / concentration at 4 h / concentration at 8 h / concentration at 15 h: 50 mg/kg oral; for Cmax: po
[3] = preliminary pharmacokinetic tests in dogs, oral; assay type: in vivo; conditions: dog, 20 mg/kg per os
Text: Preliminary tests performed in dogs with the compound (h) have given still better results than the tests performed in rats.

Citrobacter = experiment: MIC in agar, Citrobacter; assay type: cell-based; conditions: Isosensitest agar, 10^4 CFU, 24 h, 37° C., read-out: MIC, G = Citrobacter
Procedure: as §1, §2, §3

Staphylococcus aureus = experiment: MIC in agar, Staphylococcus aureus; assay type: cell-based; conditions: Isosensitest agar, 10^4 CFU, 24 h, 37° C.
Procedure: as §1, §2, §3

bacteria [4] = experiment: antibacterial characteristics tested in vivo
in vivo = conditions: rat, po
Procedure: In Table 4 the percentage of urinary excretion of compound (h) is reported, as measured in the 24 hours successive to oral administration of the same to rats.
Each value is the average of three tested rats.
The tests have been performed in comparison with Ofloxacin, a well known antibacterial compound. The amount of excreted product has been determined with microbiological analysis, by using Klebsiella Pneumoniae as the testing microorganism.

Klebsiella pneumoniae = experiment: MIC in agar, Klebsiella pneumoniae; assay type: cell-based; conditions: Isosensitest agar, 10^4 CFU, 24 h, 37° C., read-out: MIC, E = Klebsiella pneumoniae
Procedure: as §1, §2, §3
E = Klebsiella pneumoniae

[5] = test system: Proteus Morgani (indole +); experiment: MIC in agar, Proteus Morgani (indole +); assay type: cell-based; conditions: Isosensitest agar, 10^4 CFU, 24 h, 37° C.; read-out: MIC, D = Proteus Morgani (indole +)
Procedure: as §1, §2, §3
D = Proteus Morgani (indole +)

Pseudomonas aeruginosa = experiment: MIC in agar, Pseudomonas aeruginosa; assay type: cell-based; conditions: Isosensitest agar, 10^4 CFU, 24 h, 37° C., read-out: MIC, B = Pseudomonas aeruginosa
Procedure: as §1, §2, §3
B = P udomonas aeruginosa

Escherichia coli (981) = experiment: MIC in agar, Escherichia coli (981); assay type: cell-based; conditions: Isosensitest agar, 10^4 CFU, 24 h, 37° C.
Procedure: as §1, §2, §3
A = Escherichia coli (981)

Enterobacter = experiment: MIC in agar, Enterobacter; assay type: cell-based; conditions: Isosensitest agar, 10^4 CFU, 24 h, 37° C., read-out: MIC, F = Enterobacter
Procedure: as §1, §2, §3

[6] = plasma levels by HPLC after intraperitoneal and oral administration to rats; assay type: in vivo; conditions: rat; for concentration at 0.5 h: 0.50 h; for concentration at 0.5 h / concentration at 1 h / concentration at 2 h / concentration at 4 h / concentration at 8 h / concentration at 15 h: read-out: Plasma level
Procedure: We give hereinafter in Table 2 the haematic levels of compound (h) as measured in plasma by HPLC. Each value is the average of three tested rats.
More precisely in FIG. 1 the plasma levels in rats versus the time, are reported, after i.p. administration of 10 mg/kg and 25 mg/kg of compound (h), while in FIG. 2 the plasma levels are reported of compound (h) in rats, versus the time, after oral administration of 25, 50 and 100 mg/kg of said compound.

[7] = heart, read-out: Tissue level, heart
[8] = kidney, read-out: Tissue level, kidney
[9] = liver, read-out: Tissue level, liver
[10] = plasma, read-out: Tissue levels table, plasma

## CN1CCN(c2c(F)cc3c(=O)c(C(=O)O)cn4c3c2SCC4)CC1 [Compound (h), 9-Fluoro-10[N-(4'-methyl)-piperazinyl]-7-oxo-2,3-dihydro-7H-pyrido[1,2,3 de][1,4]benzothiazine-6-carboxylic acid]
Bacteria [1]
  anti-bacterial activity in vitro: very good and comparable anti-bacterial activity
[2]; [7]
  concentration at 0.5 h: 20000 ng/mL
  concentration at 1 h: 31400 ng/mL
  concentration at 2 h: 21000 ng/mL
  concentration at 4 h: 18100 ng/mL
  concentration at 8 h: 9930 ng/mL
  concentration at 15 h: 5350 ng/mL
[2]; [8]
  concentration at 0.5 h: 32600 ng/mL
  concentration at 1 h: 61200 ng/mL
  concentration at 2 h: 50600 ng/mL
  concentration at 4 h: 42400 ng/mL
  concentration at 8 h: 17800 ng/mL
  concentration at 15 h: 7950 ng/mL
[2]; [9]
  concentration at 0.5 h: 63500 ng/mL
  concentration at 1 h: 80400 ng/mL
  concentration at 2 h: 58100 ng/mL
  concentration at 4 h: 34100 ng/mL
  concentration at 8 h: 21600 ng/mL
  concentration at 15 h: 11300 ng/mL
[2]; [10]
  concentration at 0.5 h: 8750 ng/mL
  concentration at 1 h: 10100 ng/mL
  concentration at 2 h: 9950 ng/mL
  concentration at 4 h: 6370 ng/mL
  concentration at 8 h: 4950 ng/mL
  concentration at 15 h: 4290 ng/mL
[2]; heart, read-out: mean tissue level at the moment of peak, heart
  Cmax: 31400 ng/mL
[2]; liver, read-out: mean tissue level at the moment of peak, liver (first of two values printed for liver)
  Cmax: 61200 ng/mL
[2]; liver, read-out: mean tissue level at the moment of peak, liver (second of two values printed for liver)
  Cmax: 80400 ng/mL
[2]; oral
  presence in brain: No presence
[2]; oral, various organs, read-out: ratio of organ concentration with respect to the concentration in plasma
  Kp: > 3
[2]; plasma, read-out: mean level at the moment of peak, plasma
  Cmax: 10100 ng/mL
[3]
  plasma levels compared with rats: sharply higher plasma levels
[3]; plasma, po
  half-life: 24 h
[3]; plasma, po, read-out: peak plasma level
  Cmax: 8000 ng/mL
Citrobacter
  MIC: 1.56 µg/mL (≈ 4.29 µM)
Staphylococcus aureus
  MIC: 0.78 µg/mL (≈ 2.15 µM)
Bacteria [4]
  in vivo antibacterial characteristics: systemic antibacterial compound having long-lasting activity
In vivo; 20 mg/kg
  dose excreted at 24 h: 77.3 ± 6.81%
In vivo; 50 mg/kg
  dose excreted at 24 h: 73 ± 4.58%
Klebsiella pneumoniae
  MIC: < 0.39 µg/mL
[5]
  MIC: 1.56 µg/mL (≈ 4.29 µM)
Pseudomonas aeruginosa
  MIC: > 50 µg/mL
Escherichia coli (981)
  MIC: 0.78 µg/mL (≈ 2.15 µM)
Enterobacter
  MIC: < 0.39 µg/mL
[6]; plasma, ip, 10 mg/kg i.p.
  concentration at 0.5 h: 2700 ng/mL
  concentration at 1 h: 2530 ng/mL
  concentration at 2 h: 2170 ng/mL
  concentration at 4 h: 1830 ng/mL
  concentration at 8 h: 1630 ng/mL
[6]; plasma, ip, 25 mg/kg i.p.
  concentration at 0.5 h: 8350 ng/mL
  concentration at 1 h: 6290 ng/mL
  concentration at 2 h: 6440 ng/mL
  concentration at 4 h: 5010 ng/mL
  concentration at 8 h: 3720 ng/mL
[6]; plasma, po, 25 mg/kg os
  concentration at 0.5 h: 5330 ng/mL
  concentration at 1 h: 7300 ng/mL
  concentration at 2 h: 5670 ng/mL
  concentration at 4 h: 3600 ng/mL
  concentration at 8 h: 3270 ng/mL
  concentration at 15 h: 2730 ng/mL
[6]; plasma, po, 50 mg/kg os
  concentration at 0.5 h: 8750 ng/mL
  concentration at 1 h: 10100 ng/mL
  concentration at 2 h: 9950 ng/mL
  concentration at 4 h: 6370 ng/mL
  concentration at 8 h: 4950 ng/mL
  concentration at 15 h: 4290 ng/mL
[6]; plasma, po, 100 mg/kg os
  concentration at 0.5 h: 12500 ng/mL
  concentration at 1 h: 20600 ng/mL
  concentration at 2 h: 22200 ng/mL
  concentration at 4 h: 15900 ng/mL
  concentration at 8 h: 13000 ng/mL
  concentration at 15 h: 6220 ng/mL
[6]; plasma, deduced from Table 2, read-out: half-life time (converted)
  half-life: 10 h
[6]
  absorption per os and i.p.: quickly absorbed
  plasma levels induced: high and long-lasting levels both in the plasma and in the various organs
